Test results as given in the supplement of paper PMC10307832.

Experiments:
Test in all cases: relative viability (nuclei count vs DMSO), 5 days (fraction); higher = more cells survive
[1] = compound: CCOc1cc2ncc(C#N)c(Nc3ccc(OCc4ccccn4)c(Cl)c3)c2cc1NC(=O)/C=C/CN(C)C [Neratinib] + COc1cccc2cc(-c3nc([C@H]4CC[C@H](C(=O)O)CC4)n4ncnc(N)c34)[nH]c12 [OSI-027] (partner 0.5 µM)
Outline: (§1)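 Cells from lung cancer lines were seeded into 1536-well plates and, one day later, dosed by pin tool. Treatments were either a single drug or a fixed dose of an anchor drug with five library-drug doses (not always all listed) in √10 steps. After 5 days, nuclei were stained in a one-step fixation (final 0.05% Triton X-100, 1% formaldehyde, 1 ug/ml Hoechst) and counted on 4× images, and relative viability is the treated-to-vehicle nuclei ratio, as the median of duplicate plates.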

[2] = compound: CCOc1cc2ncc(C#N)c(Nc3ccc(OCc4ccccn4)c(Cl)c3)c2cc1NC(=O)/C=C/CN(C)C [Neratinib] + CC(=O)Nc1cccc(-n2c(=O)n(C3CC3)c(=O)c3c(Nc4ccc(I)cc4F)n(C)c(=O)c(C)c32)c1 [Trametinib] (partner 0.02 µM)
Outline: as §1

[3] = compound: CCOc1cc2ncc(C#N)c(Nc3ccc(OCc4ccccn4)c(Cl)c3)c2cc1NC(=O)/C=C/CN(C)C [Neratinib] + N=C(N)NC(=N)NCCc1ccccc1 [Phenformin] (partner 250 µM)
Outline: as §1

[4] = compound: CCOc1cc2ncc(C#N)c(Nc3ccc(OCc4ccccn4)c(Cl)c3)c2cc1NC(=O)/C=C/CN(C)C [Neratinib] + C[C@@H](Oc1cc(-c2cnn(C3CCNCC3)c2)cnc1N)c1c(Cl)ccc(F)c1Cl [Crizotinib] (partner 1 µM)
Outline: as §1

Row | Cell Line | relative viability ([1]; first compound 0.01 µM) | relative viability ([1]; first compound 0.03162 µM) | relative viability ([1]; first compound 0.1 µM) | relative viability ([1]; first compound 0.3162 µM) | relative viability ([1]; first compound 1 µM) | relative viability ([2]; first compound 0.01 µM) | relative viability ([2]; first compound 0.03162 µM) | relative viability ([2]; first compound 0.1 µM) | relative viability ([2]; first compound 0.3162 µM) | relative viability ([2]; first compound 1 µM) | relative viability ([3]; first compound 0.01 µM) | relative viability ([3]; first compound 0.03162 µM) | relative viability ([3]; first compound 0.1 µM) | relative viability ([3]; first compound 0.3162 µM) | relative viability ([3]; first compound 1 µM) | relative viability ([4]; first compound 0.03162 µM) | relative viability ([4]; first compound 0.1 µM) | relative viability ([4]; first compound 0.3162 µM) | relative viability ([4]; first compound 1 µM) | relative viability ([4]; first compound 0.01 µM)
1 | NCI-H322M | 0.515 | 0.592 | 0.519 | 0.365 | 0.307 | 0.519 | 0.486 | 0.506 | 0.488 | 0.373 | 0.762 | 0.671 | 0.671 | 0.376 | 0.283 | 1.02 | 0.791 | 0.659 | 0.291 | 
2 | NCI-H358 | 0.65 | 0.514 | 0.275 | 0.117 | 0.107 | 0.119 | 0.118 | 0.0959 | 0.121 | 0.125 | 0.28 | 0.266 | 0.164 | 0.147 | 0.101 | 0.409 | 0.391 | 0.161 | 0.182 | 0.65
3 | NCI-H441 | 0.681 | 0.566 | 0.598 | 0.357 | 0.275 | 0.509 | 0.428 | 0.356 | 0.332 | 0.245 | 1.04 | 0.82 | 0.94 | 0.705 | 0.45 | 0.74 | 0.587 | 0.606 | 0.268 | 0.73
4 | NCI-H460 | 0.61 | 0.891 | 0.596 | 0.419 | 0.0301 | 0.233 | 0.116 | 0.083 | 0.154 | 0.0847 | 0.58 | 0.675 | 0.414 | 0.491 | 0.341 | 0.743 |  | 0.641 | 0.355 | 1.2
5 | NCI-H520 | 0.288 | 0.253 | 0.261 | 0.234 | 0.178 | 0.642 | 0.804 |  | 0.605 | 0.421 | 0.599 | 0.78 | 0.53 | 0.496 | 0.287 | 0.929 | 0.773 | 0.689 | 0.429 | 0.908
6 | NCI-H596 | 0.771 | 0.822 | 0.686 | 0.704 | 0.386 | 0.825 | 0.947 | 0.765 | 0.707 | 0.641 | 0.754 | 0.895 | 0.75 | 0.695 | 0.562 | 1.09 | 1.04 | 0.903 | 0.861 | 0.944
7 | NCI-H647 | 0.831 | 0.738 | 0.593 | 0.483 | 0.175 | 0.439 | 0.543 | 0.366 | 0.466 | 0.229 | 0.574 |  | 0.398 | 0.368 | 0.113 | 0.978 | 0.852 | 0.835 | 0.427 | 1.21
8 | NCI-H650 | 0.546 | 0.544 | 0.553 | 0.46 | 0.456 | 0.968 | 1.03 | 1.16 |  | 0.937 | 0.509 | 0.505 | 0.493 | 0.392 | 0.423 | 0.699 | 0.78 |  | 0.421 | 0.866
9 | NCI-H661 | 0.688 | 0.615 | 0.54 | 0.325 | 0.24 | 0.63 | 0.568 | 0.447 | 0.352 | 0.276 | 0.274 | 0.242 | 0.285 | 0.247 | 0.251 | 0.983 | 0.989 | 0.828 | 0.343 | 1.06
10 | NCI-H727 | 0.58 | 0.68 | 0.466 | 0.638 | 0.406 | 0.398 | 0.427 |  | 0.355 | 0.332 | 0.521 | 0.597 | 0.294 | 0.4 | 0.595 | 1.02 |  | 0.597 | 0.423 | 0.844
11 | NCI-H838 | 0.463 | 0.492 | 0.419 | 0.325 | 0.226 | 0.53 | 0.554 | 0.502 | 0.499 | 0.281 | 0.63 | 0.669 | 0.579 | 0.433 | 0.234 | 0.812 | 0.833 | 0.67 | 0.476 | 0.995
12 | NCI-H1355 | 0.402 | 0.379 | 0.346 | 0.358 | 0.277 | 0.422 | 0.421 | 0.344 | 0.361 | 0.349 | 0.485 | 0.433 | 0.408 | 0.417 | 0.427 | 1.11 | 0.949 | 0.846 | 0.31 | 1.12
13 | NCI-H1437 | 0.851 | 0.886 | 0.812 | 0.763 | 0.759 | 0.488 | 0.579 | 0.485 | 0.424 | 0.328 | 0.351 | 0.284 | 0.281 | 0.243 | 0.29 | 0.853 | 0.897 | 0.789 | 0.822 | 1.04
14 | NCI-H1650 | 0.557 | 0.598 | 0.435 |  | 0.37 | 0.62 | 0.744 | 0.494 | 0.405 | 0.315 | 0.464 | 0.422 | 0.311 | 0.302 | 0.271 | 1.03 | 0.705 | 0.568 | 0.623 | 0.922
15 | NCI-H1651 | 0.769 | 0.838 | 0.627 | 0.564 | 0.337 | 0.87 |  | 0.793 | 0.759 | 0.609 | 0.332 | 0.383 | 0.339 | 0.27 | 0.32 | 0.944 | 0.86 | 0.846 | 0.564 | 0.927
16 | NCI-H1666 | 0.901 | 0.905 | 0.751 | 0.552 | 0.683 | 0.868 | 0.815 | 0.712 | 0.637 | 0.78 | 0.616 | 0.573 | 0.519 | 0.54 | 0.593 | 1.13 | 0.579 | 0.595 | 0.566 | 1.29
17 | NCI-H1734 | 0.659 | 0.638 |  | 0.552 | 0.331 | 0.781 | 0.788 | 0.587 |  | 0.503 | 0.428 | 0.429 | 0.382 | 0.412 | 0.32 | 0.722 | 0.535 | 0.646 | 0.446 | 0.838
